Experimental data from patent US5726200A, “Pro-drugs for CCK antagonists” (Warner-Lambert Company, priority 1996, dated 1998).

Target: T1, CCK-B receptor (Mus musculus, UniProt P56481)
T1 construct: from tissue; host or cells: cerebral cortex membranes of male CFLP mice
T1 sequence (P56481 1-453): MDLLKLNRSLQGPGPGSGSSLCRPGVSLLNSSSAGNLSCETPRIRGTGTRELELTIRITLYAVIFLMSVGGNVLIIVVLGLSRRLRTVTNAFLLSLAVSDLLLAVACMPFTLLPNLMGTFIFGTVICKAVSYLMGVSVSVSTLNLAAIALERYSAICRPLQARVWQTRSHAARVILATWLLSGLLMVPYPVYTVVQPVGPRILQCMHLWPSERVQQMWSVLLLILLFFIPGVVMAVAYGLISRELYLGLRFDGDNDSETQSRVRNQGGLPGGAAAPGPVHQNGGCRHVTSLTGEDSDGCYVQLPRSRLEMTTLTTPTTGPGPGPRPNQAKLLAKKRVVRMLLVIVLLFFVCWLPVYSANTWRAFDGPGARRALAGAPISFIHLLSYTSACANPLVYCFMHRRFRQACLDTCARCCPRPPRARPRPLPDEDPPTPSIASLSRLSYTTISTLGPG
Experiment: Displacement of tritiated-pentagastrin binding to mouse cerebral cortical membranes
Parameters: species or system mouse (male CFLP mice)
Details: displacement of 2 nM tritiated-pentagastrin, n = number of assays, read-out: Receptor Affinity CCI-B (Ki)
Description: The biological activity of compounds of the present invention was evaluated employing an initial screening test which rapidly and accurately measured the binding of the tested compound to known CCK receptor sites. […] (See Hays et al, Neuropeptides 1:53-62, 1980; and Satuer et al, Science 208:1155-1156, 1980).
In this screening test, the cerebral cortices taken from male CFLP mice weighing between 30-40 g were dissected on ice, weighed, and homogenized in 10 volumes of 50 mM Tris-HCl buffer (pH 7.4 at 0°-4° C.). The resulting suspension was centrifuged, the supernate was discarded, and the pellet was washed by resuspension in Tris-HCl buffer followed by recentrifugation. The final pellet was resuspended in 20 volumes of […] Hepes buffer (pH 7.2 at 23° C.) containing 130 mM NaCl, […] KCl, […] MgCl2, […] EDTA, 5 mg/mL bovine albumin, and bacitracin (0.25 mg/mL).
In saturation studies, cerebral cortical membranes were incubated at 23° C. for 120 minutes in a final volume of 500 μL of Hepes incubation buffer (pH 7.2) together with 0.2-20 nM tritiated-pentagastrin (Amersham International, England).
In the displacement experiments, membranes were incubated with a single concentration (2 nM) of iigand, together with increasing concentrations (10^-11 to […]) of competitive test compound. In each case, the nonspecific binding was defined as that persisting in the presence of the unlabeled octapeptide CCK26-33 (10^-6 M).
Following incubation, radioactivity bound to membranes was separated from that free in solution by rapid filtration through Whatman GF/B filters and washed three times with 4 mL of ice cold Tris-HCl buffer. Filters from samples incubated with tritiated-pentagastrin were placed in polyethylene vials with 4 mL of scintillation cocktail, and the radioactivity was estimated by liquid scintillation spectrometry (efficiency 47-52%).
The specific binding to CCK receptor sites was defined as the total bound tritiated-pentagastrin minus the amount of tritiated-pentagastrin bound in the presence of 10^-6 octapeptide, CCK26-33.
Saturation curves for specific tritiated-pentagastrin binding to mouse cortical membranes were analyzed by the methods of Scatchard (Ann. New York Acad. Sci. 51:660-672, 1949, and Hill (J. Physiol. 40:IV-VIII, 1910, to provide estimates for the maximum number of binding sites (Bmax) and the equilibrium dissociation constant (Ka).
In displacement experiments, inhibition curves were analyzed by either logit-log plots or the iterative curve fitting computer program ALLFIT (DeLean, Munson and Redbard, 1978) to provide estimates of the IC50 and nH (apparent Hill coefficient) values). (IC50 values were defined as the concentration of test compound required to produce 50% inhibition of specific binding.)
The inhibition constant (Ki) of the test compound was then calculated according to the Cheng-Prusoff equation: [formula] where [L] is the concentration of radiolabel and Ka is the equilibrium dissociation constant.

Row | Ki | Compound
1 | 21.2 ± 5.4 nM | COC(=O)CCNC(=O)C[C@H](Cc1ccccc1)NC(=O)[C@@](C)(Cc1c[nH]c2ccccc12)NC(=O)OC1C2CC3CC(C2)CC1C3 (stereo partly drawn) [Compound 10a, β-Alanine, N-[3-[[3-(1H-indol-3-yl)-2-methyl-1-oxo-2-[[(tricyclo[3.3.1.1^3,7]dec-2-yloxy)carbonyl]amino]propyl]amino]-1-oxo-4-phenylbutyl]-, methyl ester, [R-(R*,S*)]]
2 | 10.6 ± 0.12 nM | C[C@](Cc1c[nH]c2ccccc12)(NC(=O)OC1C2CC3CC(C2)CC1C3)C(=O)N[C@H](CC(=O)NCCCC(=O)O)Cc1ccccc1 (stereo partly drawn) [Compound 11l, Butanoic acid, 4-[[3-[[3-(1H-indol-3-yl)-2-methyl-1-oxo-2-[[(tricyclo[3.3.1.1^3,7]dec-2-yloxy)carbonyl]amino]propyl]amino]-1-oxo-4-phenylbutyl]amino]-, [R-(R*,S*)]]
3 | 110 nM | COC(=O)CC[C@H](NC(=O)[C@H](Cc1ccccc1)NC(=O)[C@@](C)(Cc1c[nH]c2ccccc12)NC(=O)OC1C2CC3CC(C2)CC1C3)C(=O)OC (stereo partly drawn) [Compound 5f]
4 | 9.44 nM | C[C@](Cc1c[nH]c2ccccc12)(NC(=O)OC1C2CC3CC(C2)CC1C3)C(=O)N[C@H](CC(=O)NCCC(=O)O)Cc1ccccc1 (stereo partly drawn) [Compound 11a, β-Alanine, N-[3-[[3-(1H-indol-3-yl)-2-methyl-1-oxo-2-[[(tricyclo[3.3.1.1^3,7]dec-2-yloxy)carbonyl]amino]propyl]amino]-1-oxo-4-phenylbutyl]-, [R-(R*,S*)]]
5 | 4.4 ± 0.6 nM | C[C@](Cc1c[nH]c2ccccc12)(NC(=O)OC1C2CC3CC(C2)CC1C3)C(=O)N[C@H](CC(=O)NCC(=O)O)Cc1ccccc1 (stereo partly drawn) [Compound 11k]
6 | 27.9 ± 4.1 nM | C[C@](Cc1c[nH]c2ccccc12)(NC(=O)OC1C2CC3CC(C2)CC1C3)C(=O)N[C@@H](Cc1ccccc1)C(=O)NCCC(=O)O (stereo partly drawn) [Compound 6a, β-Alanine, N-[N-[α-methyl-N-[(tricyclo[3.3.1.1^3,7]-dec-2-yloxy)carbonyl]-D-tryptophyl]-L-phenylalanyl]]
7 | 1170 nM | C[C@](Cc1c[nH]c2ccccc12)(NC(=O)OC1C2CC3CC(C2)CC1C3)C(=O)N[C@@H](Cc1ccccc1)C(=O)N[C@@H](CC(=O)O)C(=O)O (stereo partly drawn) [Compound 6h, L-Aspartic acid, N-[N-[α-methyl-N-[(tricyclo[3.3.1.1^3,7]dec-2-yloxy)carbonyl]-D-tryptophyl]-L-phenylalanyl]]
8 | 173 nM | COC(=O)CCCCCNC(=O)[C@H](Cc1ccccc1)NC(=O)[C@@](C)(Cc1c[nH]c2ccccc12)NC(=O)OC1C2CC3CC(C2)CC1C3 (stereo partly drawn) [Compound 5d, L-Phenylalaninamide, α-methyl-N-[(tricyclo[3.3.1.1^3,7]dec-2-yloxy)carbonyl]-D-tryptophyl-N-(6-methoxy-6-oxohexyl)]
9 | 1520 nM | C[C@](Cc1c[nH]c2ccccc12)(NC(=O)OC1C2CC3CC(C2)CC1C3)C(=O)N[C@@H](Cc1ccccc1)C(=O)N[C@@H](CCC(=O)O)C(=O)O (stereo partly drawn) [Compound 6i, L-Glutamic acid, N-[N-[α-methyl-N-[(tricyclo[3.3.1.1^3,7]dec-2-yloxy)carbonyl]-D-tryptophyl]-L-phenylalanyl]]
10 | 7.41 ± 1.04 nM | C[C@](Cc1c[nH]c2ccccc12)(NC(=O)OC1C2CC3CC(C2)CC1C3)C(=O)N[C@@H](Cc1ccccc1)C(=O)NCC(=O)O (stereo partly drawn) [Compound 6j, Glycine, N-[2-methyl-N-[(tricyclo[3.3.1.1^3,7]dec-2-yloxy)carbonyl]-D-tryptophyl]-L-phenylalanyl-]
11 | 66.4 nM | CCOC(=O)CCCNC(=O)C[C@H](Cc1ccccc1)NC(=O)[C@@](C)(Cc1c[nH]c2ccccc12)NC(=O)OC1C2CC3CC(C2)CC1C3 (stereo partly drawn) [Compound 10l]
12 | 17.9 nM | CCOC(=O)CNC(=O)C[C@H](Cc1ccccc1)NC(=O)[C@@](C)(Cc1c[nH]c2ccccc12)NC(=O)OC1C2CC3CC(C2)CC1C3 (stereo partly drawn) [Compound 10k, Glycine, N-[3-[[3-(1H-indol-3-yl)-2-methyl-1-oxo-2-[[(tricyclo[3.3.1.1^3,7]dec-2-yloxy)carbonyl]amino]propyl]amino]-1-oxo-4-phenylbutyl]-, ethyl ester, [R-(R*,S*)]-]
